The CheMixHub viscosity set
Where “and” joins values, the source holds several entries; their conditions need not be identical. Equal values may be shown once. ± gives the uncertainty stated by the source.

Assay: xn = mol fraction of the nth substance listed

O=P([O-])(O)O.[Li+] + O
viscosity [mPa·s], 101 kPa
Settings | x1 = 0.0018 | x1 = 0.0054 | x1 = 0.0089 | x1 = 0.012 | x1 = 0.016
298.15 K | 0.9076 ± 0.0079 | 1.021 ± 0.0091 | 1.099 ± 0.0099 | 1.209 ± 0.011 | 1.318 ± 0.011
303.15 K | 0.8338 ± 0.0075 | 0.9078 ± 0.0084 | 0.9891 ± 0.009 | 1.084 ± 0.01 | 1.211 ± 0.011
308.15 K | 0.7493 ± 0.0071 | 0.8183 ± 0.0076 | 0.888 ± 0.0083 | 0.9579 ± 0.0092 | 1.028 ± 0.011

OCC(O)C(O)CO (stereo not given) + O
viscosity [mPa·s], 101 kPa
Settings | 293.15 K | 298.15 K | 303.15 K | 308.15 K | 313.15 K | 318.15 K | 323.15 K
x1 = 0.005 | 1.176 ± 0.011 | 1.05 ± 0.01 | 0.915 ± 0.009 | 0.79 ± 0.008 | – | 0.649 ± 0.006 | 0.62 ± 0.006
x1 = 0.01 | – | 1.152 ± 0.011 | 1.021 ± 0.01 | 0.912 ± 0.009 | 0.821 ± 0.008 | 0.744 ± 0.007 | 0.679 ± 0.007
x1 = 0.015 | 1.42 ± 0.013 | 1.25 ± 0.012 | 1.109 ± 0.01 | 0.968 ± 0.009 | 0.891 ± 0.009 | 0.808 ± 0.008 | 0.736 ± 0.007
x1 = 0.02 | 1.53 ± 0.014 | 1.327 ± 0.012 | 1.191 ± 0.011 | 1.053 ± 0.01 | 0.965 ± 0.009 | 0.86 ± 0.008 | 0.813 ± 0.008

[Cl-].[Li+] + O
Settings | viscosity
293.15 K, 101 kPa, x1 = 0.17 | 4.51 ± 0.22 mPa·s
293.15 K, 101 kPa, x1 = 0.19 | 6.01 ± 0.29 mPa·s
293.15 K, 101 kPa, x1 = 0.2 | 7.36 ± 0.35 mPa·s
293.15 K, 101 kPa, x1 = 0.22 | 9.66 ± 0.46 mPa·s
293.15 K, 101 kPa, x1 = 0.23 | 10.29 ± 0.49 mPa·s
293.15 K, 101 kPa, x1 = 0.24 | 11.28 ± 0.54 mPa·s and 12.73 ± 0.61 mPa·s
293.15 K, 101 kPa, x1 = 0.25 | 14.55 ± 0.7 mPa·s
293.15 K, 101 kPa, x1 = 0.26 | 15.87 ± 0.76 mPa·s
293.15 K, 101 kPa, x1 = 0.27 | 17.76 ± 0.86 mPa·s
298.15 K, 101 kPa, x1 = 0.26 | 16.51 ± 0.47 mPa·s
298.15 K, 101.33 kPa, x1 = 0.2626 | 10.73 ± 0.43 mPa·s
303.15 K, 101 kPa, x1 = 0.17 | 3.42 ± 0.16 mPa·s
303.15 K, 101 kPa, x1 = 0.19 | 4.61 ± 0.22 mPa·s
303.15 K, 101 kPa, x1 = 0.2 | 5.59 ± 0.27 mPa·s
303.15 K, 101 kPa, x1 = 0.22 | 7.24 ± 0.35 mPa·s
303.15 K, 101 kPa, x1 = 0.23 | 7.44 ± 0.36 mPa·s
303.15 K, 101 kPa, x1 = 0.24 | 8.19 ± 0.39 mPa·s and 9.29 ± 0.45 mPa·s
303.15 K, 101 kPa, x1 = 0.25 | 10.53 ± 0.51 mPa·s
303.15 K, 101 kPa, x1 = 0.26 | 11.37 ± 0.55 mPa·s
303.15 K, 101 kPa, x1 = 0.27 | 12.85 ± 0.62 mPa·s
310.15 K, 101 kPa, x1 = 0.000205 | 0.7179 ± 0.0063 mPa·s
310.15 K, 101 kPa, x1 = 0.00126 | 0.7026 ± 0.0062 mPa·s
310.15 K, 101 kPa, x1 = 0.001978 | 0.7036 ± 0.0062 mPa·s
310.15 K, 101 kPa, x1 = 0.002695 | 0.6772 ± 0.006 mPa·s
310.15 K, 101 kPa, x1 = 0.003679 | 0.6492 ± 0.0058 mPa·s
310.15 K, 101 kPa, x1 = 0.005197 | 0.5792 ± 0.0053 mPa·s
310.15 K, 101 kPa, x1 = 0.005988 | 0.5574 ± 0.0051 mPa·s
313.15 K, 101 kPa, x1 = 0.17 | 2.73 ± 0.13 mPa·s
313.15 K, 101 kPa, x1 = 0.19 | 3.59 ± 0.17 mPa·s
313.15 K, 101 kPa, x1 = 0.2 | 4.32 ± 0.21 mPa·s
313.15 K, 101 kPa, x1 = 0.22 | 5.44 ± 0.26 mPa·s
313.15 K, 101 kPa, x1 = 0.23 | 5.67 ± 0.27 mPa·s
313.15 K, 101 kPa, x1 = 0.24 | 6.36 ± 0.3 mPa·s and 6.96 ± 0.33 mPa·s
313.15 K, 101 kPa, x1 = 0.25 | 7.83 ± 0.38 mPa·s
313.15 K, 101 kPa, x1 = 0.26 | 8.46 ± 0.41 mPa·s
313.15 K, 101 kPa, x1 = 0.27 | 9.36 ± 0.45 mPa·s
323.15 K, 101 kPa, x1 = 0.17 | 2.26 ± 0.11 mPa·s
323.15 K, 101 kPa, x1 = 0.19 | 2.94 ± 0.14 mPa·s
323.15 K, 101 kPa, x1 = 0.2 | 3.49 ± 0.17 mPa·s
323.15 K, 101 kPa, x1 = 0.22 | 4.37 ± 0.21 mPa·s
323.15 K, 101 kPa, x1 = 0.23 | 4.48 ± 0.21 mPa·s
323.15 K, 101 kPa, x1 = 0.24 | 4.99 ± 0.24 mPa·s and 5.38 ± 0.26 mPa·s
323.15 K, 101 kPa, x1 = 0.25 | 6.06 ± 0.29 mPa·s
323.15 K, 101 kPa, x1 = 0.26 | 6.55 ± 0.31 mPa·s
323.15 K, 101 kPa, x1 = 0.27 | 7.22 ± 0.35 mPa·s

C1CC[C@H]2CCCC[C@H]2C1 + O=C1CCCCC1
viscosity [mPa·s], 101.3 kPa
Settings | 293.15 K | 303.15 K
x2 = 0.05 | 3.262 ± 0.048 | 2.558 ± 0.038
x2 = 0.1446 | 3.118 ± 0.044 | 2.471 ± 0.035
x2 = 0.2281 | 3.006 ± 0.041 | 2.399 ± 0.033
x2 = 0.35 | 2.863 ± 0.038 | 2.302 ± 0.031
x2 = 0.4482 | 2.767 ± 0.035 | 2.231 ± 0.029
x2 = 0.5559 | 2.68 ± 0.033 | 2.159 ± 0.027
x2 = 0.6271 | 2.634 ± 0.032 | 2.115 ± 0.026
x2 = 0.7252 | 2.586 ± 0.031 | 2.06 ± 0.025
x2 = 0.8051 | 2.56 ± 0.03 | 2.019 ± 0.024
x2 = 0.8571 | 2.549 ± 0.029 | 1.995 ± 0.023
x2 = 0.9322 | 2.543 ± 0.029 | 1.964 ± 0.023

C[N+](C)(C)C[C@H](O)CC(=O)[O-] + O=C1O[C@H]([C@@H](O)CO)C(O)=C1O
Settings | viscosity [mPa·s]
298.15 K, 101.33 kPa, x2 = 0.7 | 423.5

C[N+](C)(C)C[C@H](O)CC(=O)[O-] + O=C(O)CC(O)(CC(=O)O)C(=O)O
Settings | viscosity [mPa·s]
298.15 K, 101.33 kPa, x2 = 0.4 | 896.5
